{"source": "patent EP4635500A1", "about": "“THERAPEUTIC AGENT FOR BACTERIAL INFECTION” (Sumitomo Pharma Co., Ltd., priority 2022, dated 2024)", "system": "Enterobacterales", "experiment": "MIC, broth microdilution, CDC/FDA Antibiotic Resistance Isolate Bank (Example 7, Tables 8, 11, 12)", "assay_type": "cell-based", "settings": "for MIC: read-out: MIC", "note": "Read-outs that look alike come from different tables or passages of the source."}
{"smiles": "O=C(O)c1cn(C2CC2)c2cc(N3CCNCC3)c(F)cc2c1=O", "note": "[Ciprofloxacin, ciprofloxacin]", "values": [{"measurement": "MIC80", "setting": "154 strains of Enterobacterales, read-out: MIC80", "value": "> 64", "unit": "µg/mL"}, {"measurement": "MIC90", "setting": "154 strains of Enterobacterales, read-out: MIC90", "value": "> 64", "unit": "µg/mL"}, {"measurement": "MIC", "setting": "Citrobacter freundii, KUB No. 5654, AR Bank # 157", "value": "> 64", "unit": "µg/mL"}, {"measurement": "MIC", "setting": "Escherichia coli, Escherichia coli KUB No. 5783, AR Bank #437", "value": "> 64", "unit": "µg/mL"}, {"measurement": "MIC", "setting": "Escherichia coli, Escherichia coli KUB No. 5794, AR Bank #450", "value": 0.06, "unit": "µg/mL"}, {"measurement": "MIC", "setting": "Escherichia coli, Escherichia coli KUB No. 5796, AR Bank #452", "value": "> 64", "unit": "µg/mL"}, {"measurement": "MIC", "setting": "Escherichia coli, KUB No. 5552, AR Bank# 55", "value": "> 64", "unit": "µg/mL"}, {"measurement": "MIC", "setting": "Escherichia coli, KUB No. 5558, AR Bank # 61", "value": "≤ 0.03", "unit": "µg/mL"}, {"measurement": "MIC", "setting": "Escherichia coli, KUB No. 5564, AR Bank # 67", "value": "> 64", "unit": "µg/mL"}, {"measurement": "MIC", "setting": "Escherichia coli, KUB No. 5566, AR Bank # 69", "value": 0.06, "unit": "µg/mL"}, {"measurement": "MIC", "setting": "Escherichia coli, KUB No. 5574, AR Bank # 77", "value": "≤ 0.03", "unit": "µg/mL"}, {"measurement": "MIC", "setting": "Escherichia coli, KUB No. 5582, AR Bank # 85", "value": "> 64", "unit": "µg/mL"}, {"measurement": "MIC", "setting": "Escherichia coli, KUB No. 5586, AR Bank # 89", "value": "≤ 0.03", "unit": "µg/mL"}, {"measurement": "MIC", "setting": "Escherichia coli, KUB No. 5616, AR Bank # 119", "value": "> 64", "unit": "µg/mL"}, {"measurement": "MIC", "setting": "Escherichia coli, KUB No. 5634, AR Bank # 137", "value": "> 64", "unit": "µg/mL"}, {"measurement": "MIC", "setting": "Escherichia coli, KUB No. 5764, AR Bank # 368", "value": "≤ 0.03", "unit": "µg/mL"}, {"measurement": "MIC", "setting": "Escherichia coli, KUB No. 5765, AR Bank # 369", "value": 0.06, "unit": "µg/mL"}, {"measurement": "MIC", "setting": "Escherichia coli, KUB No. 5766, AR Bank # 370", "value": "> 64", "unit": "µg/mL"}, {"measurement": "MIC", "setting": "Escherichia coli, KUB No. 5768, AR Bank # 372", "value": "> 64", "unit": "µg/mL"}, {"measurement": "MIC", "setting": "Escherichia coli, KUB No. 5770, AR Bank # 374", "value": "> 64", "unit": "µg/mL"}, {"measurement": "MIC", "setting": "Escherichia, KUB No. 57, AR Bank # 436 (row cut off)", "value": "> 64", "unit": "µg/mL"}, {"measurement": "MIC", "setting": "Klebsiella aerogenes, Enterobacter aerogenes, KUB No. 5559, AR Bank # 62", "value": 2, "unit": "µg/mL"}, {"measurement": "MIC", "setting": "Klebsiella aerogenes, Enterobacter aerogenes, KUB No. 5571, AR Bank # 74", "value": 0.06, "unit": "µg/mL"}, {"measurement": "MIC", "setting": "Klebsiella aerogenes, Enterobacter aerogenes, KUB No. 5658, AR Bank # 161", "value": 0.06, "unit": "µg/mL"}, {"measurement": "MIC", "setting": "Klebsiella aerogenes, Enterobacter aerogenes, KUB No. 5777, AR Bank # 431", "value": 1, "unit": "µg/mL"}, {"measurement": "MIC", "setting": "Klebsiella oxytoca, KUB No. 5644, AR Bank # 147", "value": "≤ 0.03", "unit": "µg/mL"}, {"measurement": "MIC", "setting": "Klebsiella oxytoca, KUB No. 5771, AR Bank # 375", "value": "≤ 0.03", "unit": "µg/mL"}, {"measurement": "MIC", "setting": "Klebsiella ozaenae, KUB No. 5548, AR Bank# 51", "value": "> 64", "unit": "µg/mL"}, {"measurement": "MIC", "setting": "Klebsiella pnemnonine, KUB No. 5758, AR Bank # 362", "value": "> 64", "unit": "µg/mL"}, {"measurement": "MIC", "setting": "Klebsiella pneumoniae, KUB No. 55, AR Bank# 47", "value": "> 64", "unit": "µg/mL"}, {"measurement": "MIC", "setting": "Klebsiella pneumoniae, KUB No. 5531, AR Bank# 34", "value": 0.5, "unit": "µg/mL"}, {"measurement": "MIC", "setting": "Klebsiella pneumoniae, KUB No. 5537, AR Bank# 40", "value": "> 64", "unit": "µg/mL"}, {"measurement": "MIC", "setting": "Klebsiella pneumoniae, KUB No. 5540, AR Bank# 43", "value": 4, "unit": "µg/mL"}, {"measurement": "MIC", "setting": "Klebsiella pneumoniae, KUB No. 5541, AR Bank# 44", "value": "> 64", "unit": "µg/mL"}, {"measurement": "MIC", "setting": "Klebsiella pneumoniae, KUB No. 5543, AR Bank# 46", "value": "> 64", "unit": "µg/mL"}, {"measurement": "MIC", "setting": "Klebsiella pneumoniae, KUB No. 5546, AR Bank# 49", "value": "> 64", "unit": "µg/mL"}, {"measurement": "MIC", "setting": "Klebsiella pneumoniae, KUB No. 5563, AR Bank # 66", "value": "> 64", "unit": "µg/mL"}, {"measurement": "MIC", "setting": "Klebsiella pneumoniae, KUB No. 5565, AR Bank # 68", "value": "> 64", "unit": "µg/mL"}, {"measurement": "MIC", "setting": "Klebsiella pneumoniae, KUB No. 5572, AR Bank # 75", "value": "> 64", "unit": "µg/mL"}, {"measurement": "MIC", "setting": "Klebsiella pneumoniae, KUB No. 5573, AR Bank # 76", "value": 0.5, "unit": "µg/mL"}, {"measurement": "MIC", "setting": "Klebsiella pneumoniae, KUB No. 5576, AR Bank # 79", "value": "> 64", "unit": "µg/mL"}, {"measurement": "MIC", "setting": "Klebsiella pneumoniae, KUB No. 5584, AR Bank # 87", "value": "> 64", "unit": "µg/mL"}, {"measurement": "MIC", "setting": "Klebsiella pneumoniae, KUB No. 5594, AR Bank # 97", "value": "> 64", "unit": "µg/mL"}, {"measurement": "MIC", "setting": "Klebsiella pneumoniae, KUB No. 5595, AR Bank # 98", "value": "> 64", "unit": "µg/mL"}, {"measurement": "MIC", "setting": "Klebsiella pneumoniae, KUB No. 5603, AR Bank # 106", "value": "> 64", "unit": "µg/mL"}, {"measurement": "MIC", "setting": "Klebsiella pneumoniae, KUB No. 5604, AR Bank # 107", "value": "> 64", "unit": "µg/mL"}, {"measurement": "MIC", "setting": "Klebsiella pneumoniae, KUB No. 5606, AR Bank # 109", "value": "> 64", "unit": "µg/mL"}, {"measurement": "MIC", "setting": "Klebsiella pneumoniae, KUB No. 5614, AR Bank # 117", "value": 8, "unit": "µg/mL"}, {"measurement": "MIC", "setting": "Klebsiella pneumoniae, KUB No. 5617, AR Bank # 120", "value": "> 64", "unit": "µg/mL"}, {"measurement": "MIC", "setting": "Klebsiella pneumoniae, KUB No. 5622, AR Bank # 125", "value": "> 64", "unit": "µg/mL"}, {"measurement": "MIC", "setting": "Klebsiella pneumoniae, KUB No. 5626, AR Bank # 129", "value": "> 64", "unit": "µg/mL"}, {"measurement": "MIC", "setting": "Klebsiella pneumoniae, KUB No. 5635, AR Bank # 138", "value": "> 64", "unit": "µg/mL"}, {"measurement": "MIC", "setting": "Klebsiella pneumoniae, KUB No. 5637, AR Bank # 140", "value": "> 64", "unit": "µg/mL"}, {"measurement": "MIC", "setting": "Klebsiella pneumoniae, KUB No. 5638, AR Bank # 141", "value": "> 64", "unit": "µg/mL"}, {"measurement": "MIC", "setting": "Klebsiella pneumoniae, KUB No. 5643, AR Bank # 146", "value": "> 64", "unit": "µg/mL"}, {"measurement": "MIC", "setting": "Klebsiella pneumoniae, KUB No. 5645, AR Bank # 148", "value": "> 64", "unit": "µg/mL"}, {"measurement": "MIC", "setting": "Klebsiella pneumoniae, KUB No. 5650, AR Bank # 153", "value": "> 64", "unit": "µg/mL"}, {"measurement": "MIC", "setting": "Klebsiella pneumoniae, KUB No. 5657, AR Bank # 160", "value": 0.06, "unit": "µg/mL"}, {"measurement": "MIC", "setting": "Klebsiella pneumoniae, KUB No. 5757, AR Bank # 361", "value": "> 64", "unit": "µg/mL"}, {"measurement": "MIC", "setting": "Klebsiella pneumoniae, KUB No. 5760, AR Bank # 364", "value": "> 64", "unit": "µg/mL"}, {"measurement": "MIC", "setting": "Klebsiella pneumoniae, Klebsiella pneumoniae KUB No. 5784, AR Bank #438", "value": "> 64", "unit": "µg/mL"}, {"measurement": "MIC", "setting": "Klebsiella pneumoniae, Klebsiella pneumoniae KUB No. 5797, AR Bank #453", "value": "> 64", "unit": "µg/mL"}, {"measurement": "MIC", "setting": "Klebsiella pneumoniae, Klebsiella pneumoniae KUB No. 5809, AR Bank #504", "value": 2, "unit": "µg/mL"}, {"measurement": "MIC", "setting": "Klebsiella pneumoniae, Klebsiella pneumoniae KUB No. 5810, AR Bank #505", "value": 0.5, "unit": "µg/mL"}, {"measurement": "MIC", "setting": "Klebsiella pneumoniae, Klebsiella pneumoniae KUB No. 5811, AR Bank #506", "value": 2, "unit": "µg/mL"}, {"measurement": "MIC", "setting": "Klebsiella pneumoniae, Klebsiella pneumoniae KUB No. 5812, AR Bank #507", "value": "> 64", "unit": "µg/mL"}, {"measurement": "MIC", "setting": "Klebsiella pneumoniae, Klebsiella pneumoniae KUB No. 5828, AR Bank #523", "value": 4, "unit": "µg/mL"}, {"measurement": "MIC", "setting": "Klebsiella pneumoniae, Klebsiella pneumoniae KUB No. 5830, AR Bank #525", "value": "> 64", "unit": "µg/mL"}, {"measurement": "MIC", "setting": "Kluyvera ascorbata, KUB No. 5641, AR Bank # 144", "value": 1, "unit": "µg/mL"}, {"measurement": "MIC", "setting": "Morganella morganii, KUB No. 5554, AR Bank# 57", "value": "> 64", "unit": "µg/mL"}, {"measurement": "MIC", "setting": "Morganella morganii, Morganella morganii KUB No. 5824, AR Bank #519", "value": 0.06, "unit": "µg/mL"}, {"measurement": "MIC", "setting": "Proteus mirabilis, KUB No. 5652, AR Bank # 155", "value": "> 64", "unit": "µg/mL"}, {"measurement": "MIC", "setting": "Proteus mirabilis, KUB No. 5653, AR Bank # 156", "value": 4, "unit": "µg/mL"}, {"measurement": "MIC", "setting": "Proteus mirabilis, KUB No. 5656, AR Bank # 159", "value": 1, "unit": "µg/mL"}, {"measurement": "MIC", "setting": "Proteus mirabilis, KUB No. 5775, AR Bank # 379", "value": 4, "unit": "µg/mL"}, {"measurement": "MIC", "setting": "Providencia rettgeri, KUB No. 5579, AR Bank # 82", "value": 0.06, "unit": "µg/mL"}, {"measurement": "MIC", "setting": "Serratia marcescens, KUB No. 5588, AR Bank # 91", "value": 0.06, "unit": "µg/mL"}, {"measurement": "MIC", "setting": "Serratia marcescens, KUB No. 5596, AR Bank # 99", "value": 0.06, "unit": "µg/mL"}, {"measurement": "MIC", "setting": "Serratia marcescens, KUB No. 5618, AR Bank # 121", "value": 0.06, "unit": "µg/mL"}, {"measurement": "MIC", "setting": "Serratia marcescens, KUB No. 5619, AR Bank # 122", "value": 0.06, "unit": "µg/mL"}, {"measurement": "MIC", "setting": "Serratia marcescens, KUB No. 5620, AR Bank # 123", "value": 0.06, "unit": "µg/mL"}, {"measurement": "MIC", "setting": "Serratia marcescens, KUB No. 5621, AR Bank # 124", "value": 0.06, "unit": "µg/mL"}, {"measurement": "MIC", "setting": "Serratia marcescens, KUB No. 5627, AR Bank # 130", "value": 0.06, "unit": "µg/mL"}, {"measurement": "MIC", "setting": "Serratia marcescens, KUB No. 5628, AR Bank # 131", "value": 0.06, "unit": "µg/mL"}, {"measurement": "MIC", "setting": "Serratia marcescens, Serratia marcescens KUB No. 5822, AR Bank #517", "value": 1, "unit": "µg/mL"}, {"measurement": "MIC", "setting": "Serratia marcescens, Serratia marcescens KUB No. 5825, AR Bank #520", "value": 1, "unit": "µg/mL"}]}
